Test results taken from patent US7495126B2, “Process of preparation of substituted tetrafluorobenzylaniline compound and its pharmaceutically approved salts” (priority 2005, dated 2009).

Columns and labels:
[1] = Acute toxicity test in rats, single intravenous dose; format: in vivo; conditions: male, Sprague-Dawley, rat, in vivo, iv; rats, single i.v. dose, 14 days; read-out: Estimated LD50
[2] = tested on: SD (Sprague Dawley) male rats; assay: as above; format: in vivo; conditions: for Number of dead animals/Number of drug-treated animals: 14 days after administration; for toxicity compared with free base: rats, i.v., Tables 7-9
physchem = format: physicochemical; conditions: 25 °C, water, thermodynamic from solid
[3] = Stability test of oral preparation (powder in vial, HPLC); conditions: for Residual amount: powder (solid); for stability in powder form: high temperatures
Description: It was then stored at different temperatures (25° C., 40° C., 60° C.) for 6 months and the amount of active ingredients in powder were measured by HPLC.

[4] = Stability test of injectable preparation (salt in WFI, HPLC); conditions: for Residual amount: in WFI 2 mg/ml

O=C(O)c1cc(NCc2c(F)c(F)c(C(F)(F)F)c(F)c2F)ccc1O [free base form, 2-hydroxy-5-(2,3,5,6-tetrafluoro-4-trifluoromethyl-benzylamino)benzoic acid]
LD50 at 14 day [1]: 115 to 150 mg/kg
Number of dead animals/Number of drug-treated animals ([2]; 52 mg/kg single i.v. dose): 0/7
Number of dead animals/Number of drug-treated animals ([2]; 68 mg/kg single i.v. dose): 1/7
Number of dead animals/Number of drug-treated animals ([2]; 89 mg/kg single i.v. dose): 3/7
Number of dead animals/Number of drug-treated animals ([2]; 115 mg/kg single i.v. dose): 3/7
Number of dead animals/Number of drug-treated animals ([2]; 150 mg/kg single i.v. dose): 6/7
Number of dead animals/Number of drug-treated animals ([2]; 171 mg/kg single i.v. dose): 6/7
Number of dead animals/Number of drug-treated animals ([2]; 184 mg/kg single i.v. dose): 7/7
Number of dead animals/Number of drug-treated animals ([2]; 195 mg/kg single i.v. dose): 7/7

O=C([O-])c1cc(NCc2c(F)c(F)c(C(F)(F)F)c(F)c2F)ccc1O.[Li+] [lithium salt, lithium 2-hydroxy-5-(2,3,5,6-tetrafluoro-4-trifluoromethyl-benzylamino)benzoate]
solubility at 48 h (physchem): 500 mg/mL
Residual amount ([3]; 25° C., day 0): 98.56 ± 0.89%
Residual amount ([3]; 25° C., day 7): 98.32 ± 0.32%
Residual amount ([3]; 25° C., day 14): 97.69 ± 2.58%
Residual amount ([3]; 25° C., day 21): 96.87 ± 1.64%
Residual amount ([3]; 25° C., day 30): 95.01 ± 1.10%
Residual amount ([3]; 25° C., day 60): 94.78 ± 8.09%
Residual amount ([3]; 25° C., day 120): 92.69 ± 1.03%
Residual amount ([3]; 25° C., day 180): 90.85 ± 1.61%
Residual amount ([3]; 40° C., day 0): 98.56 ± 0.89%
Residual amount ([3]; 40° C., day 7): 98.16 ± 0.09%
Residual amount ([3]; 40° C., day 14): 96.18 ± 3.28%
Residual amount ([3]; 40° C., day 21): 96.02 ± 2.49%
Residual amount ([3]; 40° C., day 30): 95.96 ± 0.89%
Residual amount ([3]; 40° C., day 60): 95.70 ± 6.88%
Residual amount ([3]; 40° C., day 120): 95.58 ± 1.38%
Residual amount ([3]; 40° C., day 180): 95.40 ± 2.37%
Residual amount ([3]; 60° C., day 0): 98.56 ± 0.89%
Residual amount ([3]; 60° C., day 7): 97.49 ± 0.80%
Residual amount ([3]; 60° C., day 14): 96.45 ± 2.80%
Residual amount ([3]; 60° C., day 21): 95.87 ± 2.09%
Residual amount ([3]; 60° C., day 30): 95.69 ± 2.97%
Residual amount ([3]; 60° C., day 60): 95.51 ± 1.99%
Residual amount ([3]; 60° C., day 120): 94.84 ± 0.56%
Residual amount ([3]; 60° C., day 180): 92.48 ± 3.14%

O=C([O-])c1cc(NCc2c(F)c(F)c(C(F)(F)F)c(F)c2F)ccc1O.[K+] [potassium salt, potassium 2-hydroxy-5-(2,3,5,6-tetrafluoro-4-trifluoromethyl-benzylamino)benzoate]
LD50 at 14 day [1]: 200 to 250 mg/kg
Number of dead animals/Number of drug-treated animals ([2]; 50 mg/kg single i.v. dose): 0/6
Number of dead animals/Number of drug-treated animals ([2]; 100 mg/kg single i.v. dose): 0/6
Number of dead animals/Number of drug-treated animals ([2]; 150 mg/kg single i.v. dose): 0/6
Number of dead animals/Number of drug-treated animals ([2]; 200 mg/kg single i.v. dose): 0/6
Number of dead animals/Number of drug-treated animals ([2]; 250 mg/kg single i.v. dose): 3/3
Number of dead animals/Number of drug-treated animals ([2]; 300 mg/kg single i.v. dose): 1/1
Number of dead animals/Number of drug-treated animals ([2]; 500 mg/kg single i.v. dose): 2/2
toxicity compared with free base [2]: less toxicity than free base
solubility at 48 h (physchem): 590 mg/mL
stability in powder form [3]: relatively stable in high temperatures
Residual amount ([3]; 25° C., day 0): 100.43 ± 0.30%
Residual amount ([3]; 25° C., day 30): 100.31 ± 0.25%
Residual amount ([3]; 25° C., day 60): 100.20 ± 0.55%
Residual amount ([3]; 25° C., day 90): 100.17 ± 0.46%
Residual amount ([3]; 25° C., day 120): 100.07 ± 0.43%
Residual amount ([3]; 25° C., day 180): 100.03 ± 0.80%
Residual amount ([3]; 40° C., day 0): 100.43 ± 0.30%
Residual amount ([3]; 40° C., day 30): 100.28 ± 1.10%
Residual amount ([3]; 40° C., day 60): 100.14 ± 0.80%
Residual amount ([3]; 40° C., day 90): 100.10 ± 0.71%
Residual amount ([3]; 40° C., day 120): 99.81 ± 0.78%
Residual amount ([3]; 40° C., day 180): 99.78 ± 0.31%
Residual amount ([3]; 60° C., day 0): 100.43 ± 0.30%
Residual amount ([3]; 60° C., day 30): 99.60 ± 0.50%
Residual amount ([3]; 60° C., day 60): 99.56 ± 0.85%
Residual amount ([3]; 60° C., day 90): 99.27 ± 0.80%
Residual amount ([3]; 60° C., day 120): 99.03 ± 0.90%
Residual amount ([3]; 60° C., day 180): 98.87 ± 0.92%
Residual amount ([4]; 25° C., day 7): 103.92 ± 1.20%
stability profile in injectable preparation ([4]; in WFI, 25-60° C., 6 months): better than that of sodium- and lithium-salt compound

O=C([O-])c1cc(NCc2c(F)c(F)c(C(F)(F)F)c(F)c2F)ccc1O.[Na+] [sodium salt, sodium 2-hydroxy-5-(2,3,5,6-tetrafluoro-4-trifluoromethyl-benzylamino)benzoate]
LD50 at 14 day [1]: 225 to 250 mg/kg
Number of dead animals/Number of drug-treated animals ([2]; 50 mg/kg single i.v. dose): 0/5
Number of dead animals/Number of drug-treated animals ([2]; 100 mg/kg single i.v. dose): 0/5
Number of dead animals/Number of drug-treated animals ([2]; 150 mg/kg single i.v. dose): 0/7
Number of dead animals/Number of drug-treated animals ([2]; 175 mg/kg single i.v. dose): 1/7
Number of dead animals/Number of drug-treated animals ([2]; 200 mg/kg single i.v. dose): 2/7
Number of dead animals/Number of drug-treated animals ([2]; 225 mg/kg single i.v. dose): 2/7
Number of dead animals/Number of drug-treated animals ([2]; 250 mg/kg single i.v. dose): 5/5
toxicity compared with free base [2]: less toxicity than free base
solubility at 48 h (physchem): 25 to 80 mg/mL
stability in powder form [3]: relatively stable in high temperatures
Residual amount ([3]; 25° C., day 0): 101.33 ± 1.02%
Residual amount ([3]; 25° C., day 7): 100.75 ± 6.24%
Residual amount ([3]; 25° C., day 14): 100.45 ± 1.24%
Residual amount ([3]; 25° C., day 21): 99.76 ± 0.70%
Residual amount ([3]; 25° C., day 30): 99.61 ± 3.21%
Residual amount ([3]; 25° C., day 60): 99.60 ± 0.16%
Residual amount ([3]; 25° C., day 120): 99.51 ± 1.70%
Residual amount ([3]; 25° C., day 180): 99.19 ± 2.28%
Residual amount ([3]; 40° C., day 0): 101.33 ± 1.02%
Residual amount ([3]; 40° C., day 7): 100.81 ± 3.35%
Residual amount ([3]; 40° C., day 14): 100.69 ± 0.29%
Residual amount ([3]; 40° C., day 21): 100.57 ± 0.48%
Residual amount ([3]; 40° C., day 30): 100.46 ± 0.27%
Residual amount ([3]; 40° C., day 60): 100.07 ± 0.16%
Residual amount ([3]; 40° C., day 120): 99.94 ± 1.15%
Residual amount ([3]; 40° C., day 180): 99.89 ± 1.11%
Residual amount ([3]; 60° C., day 0): 101.33 ± 1.02%
Residual amount ([3]; 60° C., day 7): 101.27 ± 4.45%
Residual amount ([3]; 60° C., day 14): 101.14 ± 0.50%
Residual amount ([3]; 60° C., day 21): 100.15 ± 1.14%
Residual amount ([3]; 60° C., day 30): 100.10 ± 0.75%
Residual amount ([3]; 60° C., day 60): 99.91 ± 1.18%
Residual amount ([3]; 60° C., day 120): 99.81 ± 2.28%
Residual amount ([3]; 60° C., day 180): 99.75 ± 0.20%
Residual amount ([4]; 25° C., day 0): 104.15 ± 0.54%
Residual amount ([4]; 25° C., day 3): 101.89 ± 1.16%
Residual amount ([4]; 25° C., day 7): 100.59 ± 0.19%
Residual amount ([4]; 25° C., day 14): 101.63 ± 0.19%
Residual amount ([4]; 25° C., day 21): 99.25 ± 1.41%
Residual amount ([4]; 25° C., day 30): 98.50 ± 1.64%
Residual amount ([4]; 25° C., day 60): 98.52 ± 0.02%
Residual amount ([4]; 25° C., day 90): 94.04 ± 4.28%
Residual amount ([4]; 25° C., day 120): 92.79 ± 1.01%
Residual amount ([4]; 25° C., day 150): 90.18 ± 3.14%
Residual amount ([4]; 25° C., day 180): 85.56 ± 4.58%
Residual amount ([4]; 40° C., day 0): 104.15 ± 0.54%
Residual amount ([4]; 40° C., day 3): 102.77 ± 0.08%
Residual amount ([4]; 40° C., day 7): 98.54 ± 0.71%
Residual amount ([4]; 40° C., day 14): 99.56 ± 0.72%
Residual amount ([4]; 40° C., day 21): 95.98 ± 1.50%
Residual amount ([4]; 40° C., day 30): 95.17 ± 0.07%
Residual amount ([4]; 40° C., day 60): 91.51 ± 1.17%
Residual amount ([4]; 40° C., day 90): 86.36 ± 0.90%
Residual amount ([4]; 40° C., day 120): 79.02 ± 1.05%
Residual amount ([4]; 40° C., day 150): 77.42 ± 0.71%
Residual amount ([4]; 40° C., day 180): 72.32 ± 0.38%
Residual amount ([4]; 60° C., day 0): 104.15 ± 0.54%
Residual amount ([4]; 60° C., day 3): 99.39 ± 0.43%
Residual amount ([4]; 60° C., day 7): 92.01 ± 1.27%
Residual amount ([4]; 60° C., day 14): 92.96 ± 1.28%
Residual amount ([4]; 60° C., day 21): 84.54 ± 1.34%
Residual amount ([4]; 60° C., day 30): 82.88 ± 4.35%
Residual amount ([4]; 60° C., day 60): 70.25 ± 4.27%
Residual amount ([4]; 60° C., day 90): 56.00 ± 11.70%
Residual amount ([4]; 60° C., day 120): 53.43 ± 6.30%
Residual amount ([4]; 60° C., day 150): 40.37 ± 14.41%
Residual amount ([4]; 60° C., day 180): 37.10 ± 12.35%
